Results on 21 compounds are retold here after patent publication US8242145B2, “Cyclic diaryl ether compounds as antagonists of prostaglandin D2 receptors” (Panmira Pharmaceuticals, LLC, priority 2008, dated 2012).

SMILES strings stand for the structures. A value given as a limit tells only on which side of the number the result lay.

The target in experiment [1] is T1, human DP2 receptor (Homo sapiens, UniProt Q9Y5Y4).
T1 construct: expressed in transfected cells
T1 sequence (Q9Y5Y4 1-395): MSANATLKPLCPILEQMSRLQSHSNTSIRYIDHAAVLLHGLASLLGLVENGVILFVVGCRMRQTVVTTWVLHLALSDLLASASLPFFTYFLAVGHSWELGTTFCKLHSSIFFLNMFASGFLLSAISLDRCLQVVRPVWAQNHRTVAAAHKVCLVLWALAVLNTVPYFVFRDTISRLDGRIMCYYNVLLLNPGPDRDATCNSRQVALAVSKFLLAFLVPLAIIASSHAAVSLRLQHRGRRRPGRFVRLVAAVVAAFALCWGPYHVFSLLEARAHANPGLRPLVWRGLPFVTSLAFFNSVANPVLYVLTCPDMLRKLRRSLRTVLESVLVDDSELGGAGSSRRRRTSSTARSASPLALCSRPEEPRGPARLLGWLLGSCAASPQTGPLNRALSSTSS
The experiment is described as follows: DP2/CRTH2 radioligand binding assay using [3H]PGD2. The conditions noted are these: hDP2 (CRTH2) binding assay. The method, then:
The ability of a compound to bind to the human DP2 receptor is assessed via a radioligand binding assay using [^3H]PGD2. HEK293 cells stably expressing recombinant human DP2 are resuspended in 10 mM Hepes, 7.4 containing 1 mM DTT, lysed and centrifuged at 75,000×g to pellet the membranes. The membranes are resuspended in 10 mM Hepes, 7.4 containing 1 mM DTT and 10% glycerol to approximately 5 mg protein/ml. Membranes (2-10 μg protein/well) are incubated in 96-well plates with 1 nM [^3H]PGD2 and test compound in Assay Buffer (50 mM Hepes, 10 mM MnCl2, 1 mM EDTA, plus or minus 0.2% human serum albumin, pH 7.4) for 60 minutes at room temperature. The reactions are terminated by rapid filtration through Whatman GF/C glass fibre filter plates. The filter plates were pre-soaked in 0.33% polythylenimine for 30 minutes at room temperature then washed in Wash Buffer (50 mM Hepes, 0.5 M NaCl pH 7.4) prior to harvesting. After harvesting, the filter plates are washed 3 times with 1 ml cold Wash Buffer then dried. Scintillant is then added to the plates and the radioactivity retained on the filters is determined on a Packard TopCount (Perkin Elmer). Specific binding is determined as total radioactive binding minus non-specific binding in the presence of 10 μM PGD2. IC50s were determined using GraphPad prism analysis of drug titration curves.

The target of experiment [2] is T2, human DP1 receptor (Homo sapiens, UniProt Q13258).
T2 construct: tissue Biological Specialty Corporation; host or cells: human platelets, membranes
T2 sequence (Q13258 1-359): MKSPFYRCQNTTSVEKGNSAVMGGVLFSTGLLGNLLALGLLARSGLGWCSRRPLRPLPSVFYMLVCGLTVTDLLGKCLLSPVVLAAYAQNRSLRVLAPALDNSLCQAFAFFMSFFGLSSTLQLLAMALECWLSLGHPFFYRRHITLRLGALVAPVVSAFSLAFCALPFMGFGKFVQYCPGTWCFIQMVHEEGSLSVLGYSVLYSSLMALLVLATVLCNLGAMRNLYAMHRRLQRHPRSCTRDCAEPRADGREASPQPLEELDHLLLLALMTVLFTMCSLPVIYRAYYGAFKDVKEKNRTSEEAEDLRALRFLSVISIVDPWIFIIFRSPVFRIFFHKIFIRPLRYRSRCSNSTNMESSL
The experiment can be described thus: DP1 radioligand binding assay using [3H]BWA868C. To be noted: hDP1 binding. Here is the method: The ability of a compound to bind to the human DP1 receptor was evaluated via a radioligand membrane binding assay using the DP1 selective synthetic ligand [^3H]BW A868C. Packed human platelets (Biological Specialty Corporation), were resuspended in 6 volumes of Hepes/HBSS buffer (10 mM Hepes, 1 mM DTT in Hanks Balanced Salt Solution (HBSS)), lysed and centrifuged at 75,000×g to pellet the membranes. Membranes were resuspended in Hepes/HBSS buffer to approximately 12 mg protein/ml. Membranes (20 μg protein/well) are incubated in 96-well plates with 2 nM [^3H]BWA868C and test compound in Assay Buffer (50 mM Hepes, 10 mM MnCl2, 1 mM EDTA, plus or minus 0.2% human serum albumin, pH 7.4) for 60 minutes at room temperature. The reactions are terminated by rapid filtration through Whatman GF/C glass fibre filter plates. The filter plates were pre-soaked in 0.33% polethylenimine for 30 minutes at room temperature then washed in Wash Buffer (50 mM Hepes, 0.5 M NaCl pH 7.4) prior to harvesting. After harvesting, the filter plates are washed 3 times with 1 ml cold Wash Buffer then dried. Scintillant is then added to the plates and the radioactivity retained on the filters is determined on a Packard TopCount (Perkin Elmer). Specific binding is determined as total radioactive binding minus non-specific binding in the presence of 10 μM BW A868C. IC50s were determined using GraphPad prism analysis of drug titration curves.

The term IC50 denotes the concentration that gives 50% inhibition. Low values mean inhibition by little substance, high ones a need for much substance. For the compound `O=C(O)Cc1cccc(Oc2ccccc2CN2CCOC2=O)c1` [Compound 1-1, {3-[2-(2-Oxo-oxazolidin-3-ylmethyl)-phenoxy]-phenyl}-acetic acid], the IC50 in experiment [1] and in experiment [2] was more than 1000 nM in each case.

Consider `O=C(O)Cc1cccc(Oc2ccc(F)cc2CN2CCOC2=O)c1` [Compound 1-2, {3-[4-Fluoro-2-(2-oxo-oxazolidin-3-ylmethyl)-phenoxy]-phenyl}-acetic acid], for which the half-inhibitory concentration (IC50) in experiment [1] and in experiment [2] was more than 1000 nM each time.

Turning to `Cc1ccc(Oc2cccc(CC(=O)O)c2)c(CN2CCOC2=O)c1` [Compound 1-4, {3-[4-Methyl-2-(2-oxo-oxazolidin-3-ylmethyl)-phenoxy]-phenyl}-acetic acid], the concentration for half-maximal inhibition (IC50) in experiment [1] was 300 to 1000 nM; in experiment [2], more than 1000 nM.

In the case of `CC(C)(C(=O)O)c1cccc(Oc2ccc(C(F)(F)F)cc2CN2CCOC2=O)c1` [Compound 1-11, 2-Methyl-2-{3-[2-(2-oxo-oxazolidin-3-ylmethyl)-4-trifluoromethyl-phenoxy]-phenyl}-propionic acid], the IC50 in experiment [1] and in experiment [2] was more than 1000 nM throughout.

Turning to `O=C(O)Cc1cc(Oc2ccc(C(F)(F)F)cc2CN2CCOC2=O)ccc1Br` [Compound 1-12, {2-Bromo-5-[2-(2-oxo-oxazolidin-3-ylmethyl)-4-trifluoromethyl-phenoxy]-phenyl}-acetic acid], the concentration for half-maximal inhibition (IC50) in experiment [1] was more than 1000 nM.

Consider `C[C@H]1[C@@H](c2ccccc2)OC(=O)N1Cc1cc(-c2ccccn2)ccc1Oc1cccc(CC(=O)O)c1` [Compound 1-19, {3-[2-((4S,5R)-4-Methyl-2-oxo-5-phenyl-oxazolidin-3-ylmethyl)-4-pyridin-2-yl-phenoxy]-phenyl}-acetic acid], for which the IC50 in experiment [1] and in experiment [2] was less than 300 nM each time.

On to `C[C@H]1[C@@H](c2ccccc2)OC(=O)N1Cc1cc(-c2cnc(N)cn2)ccc1Oc1cccc(CC(=O)O)c1` [Compound 1-20, {3-[4-(5-Amino-pyrazin-2-yl)-2-((4S,5R)-4-methyl-2-oxo-5-phenyl-oxazolidin-3-ylmethyl)-phenoxy]-phenyl}-acetic acid], for which the 50% inhibitory concentration (IC50) in experiment [1] was 300 to 1000 nM; in experiment [2], less than 300 nM.

Consider `C[C@H]1[C@@H](c2ccccc2)OC(=O)N1Cc1cc(-c2cnn(C)c2)ccc1Oc1cccc(CC(=O)O)c1` [Compound 1-21, {3-[2-((4S,5R)-4-Methyl-2-oxo-5-phenyl-oxazolidin-3-ylmethyl)-4-(1-methyl-1H-pyrazol-4-yl)-phenoxy]-phenyl}-acetic acid], for which the half-maximal inhibitory concentration (IC50) in experiment [1] and in experiment [2] was less than 300 nM each time.

In the case of `Cc1ncc(-c2ccc(Oc3cccc(CC(=O)O)c3)c(CN3C(=O)O[C@H](c4ccccc4)[C@@H]3C)c2)[nH]1` [Compound 1-23, {3-[4-(2-Methyl-3H-imidazol-4-yl)-2-((4S,5R)-4-methyl-2-oxo-5-phenyl-oxazolidin-3-ylmethyl)-phenoxy]-phenyl}-acetic acid], the concentration for half-maximal inhibition (IC50) in experiment [1] was less than 300 nM; in experiment [2], more than 1000 nM.

Regarding `C[C@H]1[C@@H](c2ccccc2)OC(=O)N1Cc1cc(-c2ccc(C(N)=O)cn2)ccc1Oc1cccc(CC(=O)O)c1` [Compound 1-68, {3-[4-(5-Carbamoyl-pyridin-2-yl)-2-((4S,5R)-4-methyl-2-oxo-5-phenyl-oxazolidin-3-ylmethyl)-phenoxy]-phenyl}-acetic acid], the concentration for half-maximal inhibition (IC50) is 300 to 1000 nM in experiment [1] and less than 300 nM in experiment [2].

In the case of `C[C@H]1[C@@H](c2ccccc2)OC(=O)N1Cc1cc(-c2ccc(N)cn2)ccc1Oc1cccc(CC(=O)O)c1` [Compound 1-69, {3-[4-(5-Amino-pyridin-2-yl)-2-((4S,5R)-4-methyl-2-oxo-5-phenyl-oxazolidin-3-ylmethyl)-phenoxy]-phenyl}-acetic acid], the 50% inhibitory concentration (IC50) in experiment [1] and in experiment [2] was less than 300 nM throughout.

As for `Cc1nc(-c2ccc(Oc3cccc(CC(=O)O)c3)c(CN3C(=O)O[C@H](c4ccccc4)[C@@H]3C)c2)cn1C` [Compound 1-70, {3-[4-(1,2-Dimethyl-1H-imidazol-4-yl)-2-((4S,5R)-4-methyl-2-oxo-5-phenyl-oxazolidin-3-ylmethyl)-phenoxy]-phenyl}-acetic acid], the IC50 was less than 300 nM in experiment [1] and more than 1000 nM in experiment [2].

Compound `COc1ccc(CC(=O)O)cc1Oc1ccc(NC(=O)C(C)(C)C)cc1CN1CCOC1=O` [Compound 1-100, {3-[4-(2,2-Dimethyl-propionylamino)-2-(2-oxo-oxazolidin-3-ylmethyl)-phenoxy]-4-methoxy-phenyl}-acetic acid] returned an IC50 in experiment [1] of less than 300 nM.

`COc1ccc(CC(=O)O)cc1Oc1ccc(NC(=O)Cc2ccccc2)cc1CN1CCOC1=O` [Compound 1-101, {4-Methoxy-3-[2-(2-oxo-oxazolidin-3-ylmethyl)-4-phenylacetylamino-phenoxy]-phenyl}-acetic acid] displayed an IC50 in experiment [1] of less than 300 nM.

`COc1ccc(CC(=O)O)cc1Oc1ccc(NC(=O)C2CCCCC2)cc1CN1CCOC1=O` [Compound 1-102, {3-[4-(Cyclohexanecarbonyl-amino)-2-(2-oxo-oxazolidin-3-ylmethyl)-phenoxy]-4-methoxy-phenyl}-acetic acid] displayed an IC50 in experiment [1] of less than 300 nM.

As to `COc1ccc(CC(=O)O)cc1Oc1ccc(NC(=O)C(C)C)cc1CN1CCOC1=O` [Compound 1-103, {3-[4-Isobutyrylamino-2-(2-oxo-oxazolidin-3-ylmethyl)-phenoxy]-4-methoxy-phenyl}-acetic acid], the IC50 in experiment [1] is less than 300 nM.

As to `COc1ccc(CC(=O)O)cc1Oc1ccc(NC(=O)c2ccncc2)cc1CN1CCOC1=O` [Compound 1-104, (4-Methoxy-3-{2-(2-oxo-oxazolidin-3-ylmethyl)-4-[(pyridine-4-carbonyl)-amino]-phenoxy}-phenyl)-acetic acid], the IC50 in experiment [1] was less than 300 nM.

Regarding `COc1ccc(CC(=O)O)cc1Oc1ccc(NC(=O)c2cccnc2)cc1CN1CCOC1=O` [Compound 1-105, (4-Methoxy-3-{2-(2-oxo-oxazolidin-3-ylmethyl)-4-[(pyridine-3-carbonyl)-amino]-phenoxy}-phenyl)-acetic acid], the IC50 in experiment [1] is more than 1000 nM.

In experiment [1], `COc1ccc(CC(=O)O)cc1Oc1ccc(NC(=O)COc2ccccc2)cc1CN1CCOC1=O` [Compound 1-106, {4-Methoxy-3-[2-(2-oxo-oxazolidin-3-ylmethyl)-4-(2-phenoxy-acetylamino)-phenoxy]-phenyl}-acetic acid] yielded an IC50 of less than 300 nM.

In turn, `COCC(=O)Nc1ccc(Oc2cc(CC(=O)O)ccc2OC)c(CN2CCOC2=O)c1` [Compound 1-107, {4-Methoxy-3-[4-(2-methoxy-acetylamino)-2-(2-oxo-oxazolidin-3-ylmethyl)-phenoxy]-phenyl}-acetic acid] showed a half-inhibitory concentration (IC50) in experiment [1] of 300 to 1000 nM.

The compound `COc1ccc(CC(=O)O)cc1Oc1ccc(NC(=O)NCc2ccccc2)cc1CN1CCOC1=O` [Compound 1-108, {3-[4-(3-Benzyl-ureido)-2-(2-oxo-oxazolidin-3-ylmethyl)-phenoxy]-4-methoxy-phenyl}-acetic acid] yielded a concentration for half-maximal inhibition (IC50) in experiment [1] of less than 300 nM.
